Experimental data from patent US20210061684A1 (HIYOSHI CORPORATION, priority 2018, published 2021).
Read-outs that look alike come from different tables or passages of the source.

How the values were obtained:
Legionella [1] = test system: Legionella
Legionella [2] = test system: Legionella; remark: listed apart in the source

Substance	effect on Legionella at low concentration (Legionella [1])	growth of Legionella (Legionella [1])	effect on Legionella at low concentration (Legionella [2])	growth of Legionella (Legionella [2])	decrease of the number of bacteria (Legionella [1])
ammonium iron (II) sulfate hexahydrate	a sufficient effect was obtained	greatly suppressed	–	–	–
ammonium iron (III) sulfate dodecahydrate	a sufficient effect was obtained	greatly suppressed	–	–	–
iron (II) sulfate heptahydrate	the effect was observed	greatly suppressed	an effect was obtained	greatly suppressed	at least 3 orders of magnitude
iron (III) chloride hexahydrate	–	–	an effect was obtained	greatly suppressed	–
